# Columns and labels:
# [1] = tested on: prostate specific antigen (PSA); conditions: 1,000 mg daily, well controlled trials; cited from earlier work
# [2] = tested on: 22RV1 human prostate tumor xenograft; test: Anti-tumor activity in 22RV1 human prostate tumor xenograft model; format: in vivo, CB.17 SCID mice; conditions: low and high doses, once-daily oral gavage
# Procedure: The objective of the xenograft mice study was to determine the anti-tumor activity of a composition made per Example 2.4 as a single agent versus abiraterone acetate in the 22RV1 human prostate tumor xenograft model. The study was conducted in CB.17 SCID mice injected with 22RV1 cells (5×10^6 cells/mouse) in the subcutaneous right flank. Tumors were grown to a mean tumor size between 100 and 150 mm^3 prior to study enrollment. The mice were dosed with the test article and reference once-daily by oral gavage per Table 12. Tumor volume was measured throughout the study. The study was terminated on day 26 when mean tumor volume of two experimental groups reached≥1500 mm^3.
# [3] = cited from earlier work
# [4] = Phase solubility analysis of abiraterone-HPBCD; format: physicochemical; conditions: with HPBCD, in 0.01N HCl and FaSSIF
# Procedure: Phase Solubility Analysis. Phase solubility analysis was conducted in two separate media, i.e., 0.01N HCl (pH 2.0) and FaSSIF (prepared in 50 mMol Phosphate Buffer pH 6.8). Solutions of HPBCD ranging from 0 mg/mL to 600 mg/mL were prepared in each media in scintillation vials. An excess of abiraterone was added to each vial and the vials were sonicated for 30 minutes and placed on a bench. Samples were pulled from each vial at time points of 48 hrs and 7 days. The samples were centrifuged using an ultracentrifuge (Eppendrof, Hamburg, Germany) The supernatants were further diluted using the HPLC diluent and analyzed by HPLC method mentioned above to find the concentration of abiraterone.
smiles,measurement,setting,value
"CC(=O)O[C@H]1CC[C@@]2(C)C(=CC[C@@H]3[C@@H]2CC[C@]2(C)C(c4cccnc4)=CC[C@@H]32)C1 [Abiraterone Acetate, (3β)-17-(3-pyridinyl)androsta-5, 16-dien-3-ol acetate]",treated patients achieving target PSA reductions,[1],up to 60%
same,tumor growth relative to vehicle control,[2],did not result in statistically different tumor growth
"C[C@]12CC[C@H](O)CC1=CC[C@@H]1[C@@H]2CC[C@]2(C)C(c3cccnc3)=CC[C@@H]12 [Abiraterone, (3β)-17-(3-pyridinyl)androsta-5,16-dien-3-ol]",pKa,[3],4.81
same,type of solution state phase solubility profile (Higuchi and Connors),[4],A-type

# Source: US20220362264A1, “ABIRATERONE-CYCLIC OLIGOMER PHARMACEUTICAL FORMULATIONS AND METHODS OF FORMATION AND ADMINISTRATION THEREOF” (DISPERSOL TECHNOLOGIES, LLC., priority 2019, published 2022)
